This is an account of results in US20230390403A1, “COMPOSITIONS AND METHODS FOR DRUG DELIVERY” (North Carolina State University, priority 2020, published 2023).

Series [1] has as its system U87 tumor. As to the kind of experiment: Tumor inhibition and survival after intratumoral or intravenous aldoxorubicin. The format is in vivo, nude mice. As to conditions: intratumoral 10.5 mg/kg; compared to saline and intravenous aldoxorubicin. The text has this:
FIGS. 14A-14D show the impact of intratumoral anchoring and local tumor release of a chemotherapeutic agent (aldoxorubicin) functionalized with a maleimide tissue binding moiety. FIG. 14A plots the percent change in tumor volume as a function of days after injection for mice treated with saline injection alone (control), intravenous injection of aldoxorubicin, and intratumoral injection of aldoxorubicin. FIG. 14B is a plot showing the probability of survival for mice treated with saline injection alone (control), intravenous injection of aldoxorubicin, and intratumoral injection of aldoxorubicin. FIG. 14C is a plot comparing tumor volume 7 days after treatment with saline injection alone (control), treatment with intravenous injection of aldoxorubicin, and treatment with intratumoral injection of aldoxorubicin. FIG. 14D is a plot comparing tumor volume 14 days after treatment with saline injection alone (control), treatment with intravenous injection of aldoxorubicin, and treatment with intratumoral injection of aldoxorubicin.
In a further proof-of-principle study, aldoxorubicin was used to validate the concept of anchoring (and subsequent local tumor release) of a chemotherapeutic agent functionalized with a maleimide tissue binding moiety. […] Tumor size and weight were measured at varying intervals following injection. […]

The test system of a further series is dermal tissue. Put plainly: Intradermal anchoring of Cy7-maleimide (IVIS fluorescence). The format is in vivo, CD-1 mice. The protocol:
FIG. 12 is a plot showing the percent of the initial injection dose (% ID) maintained one day and one week following injection of Cy7-maleimide alone, Cy7-maleimide plus tris(2-carboxyethyl)phosphine (TCEP), and Cy7-maleimide plus mercaptoethanol (MCE).
To investigate whether maleimide molecules can anchor to dermal tissue by binding to available thiol groups, CD-1 mice were injected intradermally with Cy7-maleimide (50 uL of 0.2 mM) and monitored for fluorescence over 1 week using an IVIS imager. ICG/ICG excitation and emission filters were used for all IVIS images. Cy7-maleimide plus TCEP was used to attempt to increase free thiols by breaking disulfide bonds.

The test system of series [2] is U87 tumor. Put plainly: Intratumoral anchoring of Cy7-maleimide (IVIS fluorescence). Format: in vivo, nude mice. As to conditions: 50 uL of 0.2 mM, 1 week after injection. How it is done:
FIG. 13 illustrates the intratumoral anchoring of Cy7-maleimide after one week.
To investigate whether active maleimide molecules can anchor to tissue in a tumor, nude mice were injected subcutaneously with U87 tumor cells mixed with Matrigel. Once tumor reached 100 mm^3, Cy7-maleimide (50 uL of 0.2 mM) was injected intratumorally and monitored for fluorescence over 1 week using an IVIS imager. ICG/ICG excitation and emission filters were used for all IVIS images. […] This validated that anchorable drug compounds containing a maleimide tissue binding moiety could efficiently react with thiol moieties present in proteins found within tumors following intratumoral injection.

In series [3] the test system is KPC 4662 murine pancreatic tumor. As to the kind of experiment: In vivo assessment of PTX-sNHS induced apoptosis (cleaved caspase 3 staining). As to conditions: 72 hours after single intratumoral injection, 20 mg/kg. On the set-up: species or system C57BL/6 mice.
Description: To assess the ability of intratumoral depots to release free paclitaxel and induce apoptotic tumor cell death, ectopic pancreatic tumor model was developed by subcutaneous inoculation of approximately 1*10^6 KPC 4662 murine pancreatic tumor cells in 1:1 PBS/matrigel (Corning/cat #354234) solution on the dorsal flanks of 8 week old female albino C57BL/6 mice (Charles River). Once the tumors were approximately 100 mm^3 in volume, animals were randomly divided into four groups to receive either no treatment or single intratumoral injection of vehicle (50% NMP: alfa aesar, #AA44063-K2, 50% Saline: cat #470302-026, VWR), free paclitaxel (Medkoo, cat #100690, 20 mg/kg) and paclitaxel-sNHS (n=3/group, 20 mg/kg). […] For quantification of apoptosis, CC-3-stained vs hematoxylin-stained areas were measured with respect to total tumor area (45, 46).
To investigate whether intratumoral injection of TRAP paclitaxel has therapeutic efficacy in vivo, we studied paclitaxel-induced apoptosis in the fibrous, syngeneic KPC 4662 pancreatic adenocarcinoma mouse model. […] For quantification of apoptosis, whole tissue sections were scanned to detect CC-3 positive areas and quantified to assess the percent of whole tumor area undergoing apoptosis. […] Quantification of apoptosis was performed by computationally separating CC-3 stained from hematoxylin stained areas (45). […]
Series [4] can be described thus: Aqueous solubility compared to paclitaxel. The format is physicochemical.
Series [5] can be described thus: In vitro PTX release: hydrolysis of PTX succinic acid in PBS (HPLC). The format is physicochemical. The conditions noted are these: for half-life: PBS, 37° C.; for PTX-succinate remaining intact: after 24 hours. The protocol:
In Vitro PTX Release. Hydrolytic studies of PTX succinic acid were carried out at 37° C. in PBS containing 0.01% DMSO and 0.1% Tween 80 at pH 7.4 and pH 6.5. 5.33 μM of PTX-succinic acid was dissolved in a 5 ml of medium and kept continuously stirring at 150 rpm/min. 50 μL of sample was removed at predetermined time intervals of 0, 24, 48, 72 and 96 hours and replaced with 50 μL of fresh media. Removed samples were mixed with 50% of acetonitrile and analyzed using Agilent 1290 HPLC system with Agilent 2.1×50 mm C18 column and mobile phase consisting of 60% ammonium formate and 40% acetonitrile. Concentration of PTX-SA and free PTX were determined using calibration curves.
The hydroxyl group at the C-2′ position is necessary for paclitaxel's anticancer activities. Therefore, the succinate ester must hydrolyze to achieve desired antitumor responses (41). We measured paclitaxel release from PTX-succinate in PBS at 37° C. in both neutral pH and the slightly acidic conditions (pH˜6.5) commonly observed in the tumor microenvironments. Disappearance of the PTX succinate peak and appearance of PTX peak was quantified using HPLC. […] After 24 hours, nearly 82% of PTX-succinate remained intact in acidic conditions, while 54% remained in the neutral condition. […] In contrast at the more acidic pH, paclitaxel continued its accumulation in the release media, with 60% of initial dose observed at 96 hours.

With `COc1cccc2c1C(=O)c1c(O)c3c(c(O)c1C2=O)C[C@@](O)(/C(CO)=N/NC(=O)CCCCCN1C(=O)C=CC1=O)C[C@@H]3O[C@H]1C[C@H](N)[C@H](O)[C@H](C)O1` [aldoxorubicin], in the series with U87 tumor [1], the survival probability result was “improved” and the tumor inhibition result is recorded as “improved”.
With `C[N+]1=C(C=CC2=CC(=CC=C3N(CCCCCC(=O)NCCN4C(=O)C=CC4=O)c4ccccc4C3(C)C)CCC2)C(C)(C)c2ccccc21.[Cl-]` [Cy7-maleimide, cyanine 7 maleimide], the “skin irritation or skin toxicity” value in the series with dermal tissue (intradermal injection, monitored over 1 week) was “No skin irritation or skin toxicity was observed”. Besides, the injection dose maintained result with dermal tissue (intradermal, 50 uL of 0.2 mM, after 1 week) is “approximately 10%”; in the series on U87 tumor [2], “approximately 18%”.
On to `CC(=O)O[C@H]1C(=O)[C@@]2(C)[C@H]([C@H](OC(=O)c3ccccc3)[C@]3(O)C[C@H](OC(=O)[C@H](O)[C@@H](NC(=O)c4ccccc4)c4ccccc4)C(C)=C1C3(C)C)[C@]1(OC(C)=O)CO[C@@H]1C[C@@H]2O` [paclitaxel], for which, in series [3], the “apoptotic area (CC-3 stained), of total tumor area” value was found to be 27%. Further, in series [3] (color saturation analysis), the “necrosis, of tumor area” value was roughly 30%. For the same compound, the aqueous solubility result in series [4] is “poorly soluble”.
As for “2′-O-succinyl paclitaxel [PTX-succinate]”, the values for the half-life in series [5] (neutral pH) and in series [5] (pH 6.5) were roughly 37 h and roughly 56 h, respectively. The “free paclitaxel in release media, of initial dose” value in series [5] (acidic pH (6.5), 96 hours) is reported as 60%. In addition, the PTX-succinate remaining intact in series [5] (acidic conditions (pH 6.5)) is on record as roughly 82%; in series [5] (neutral condition), 54%. Moreover, in series [5] (neutral pH, 96 hours), the “free paclitaxel released (maximum)” value was found to be 32%.
